# Assay: Inhibition of ABCB1 (unknown origin) expressed in human A2780 ADR cells assessed as potentiation of daunorubicin-induced cytotoxicity measured after 72 hrs by MTT assay
row,SMILES,EC50 [µM]
1,N#Cc1ccc(Nc2cc(Nc3ccccc3O)nc(-c3ccccc3)n2)cc1,34.4

# Assay: Inhibition of ABCG2 (unknown origin) expressed in MDCK-II cells assessed as potentiation of SN-38-induced cytotoxicity measured after 72 hrs by MTT assay
row,SMILES,EC50 [µM]
1,CNc1cc(Nc2ccc(C#N)cc2)nc(-c2ccccc2)n1,0.022
2,CC(C)Nc1cc(Nc2ccc(C#N)cc2)nc(-c2ccccc2)n1,0.018
3,CCCNc1cc(Nc2ccc(C#N)cc2)nc(-c2ccccc2)n1,0.015
4,CCCCNc1cc(Nc2ccc(C#N)cc2)nc(-c2ccccc2)n1,0.03
5,N#Cc1ccc(Nc2cc(-c3ccccc3)nc(-c3ccccc3)n2)cc1,0.041
6,N#Cc1ccc(Nc2cc(Nc3ccccc3)nc(-c3ccccc3)n2)cc1,0.044
7,N#Cc1ccc(Nc2cc(NCc3ccccc3)nc(-c3ccccc3)n2)cc1,0.026
8,N#Cc1ccc(Nc2cc(NCCCc3ccccc3)nc(-c3ccccc3)n2)cc1,0.067
9,N#Cc1ccc(Nc2cc(NCCCCc3ccccc3)nc(-c3ccccc3)n2)cc1,0.187
10,N#Cc1ccc(Nc2cc(NCc3ccccn3)nc(-c3ccccc3)n2)cc1,0.016
11,N#Cc1ccc(Nc2cc(NCc3cccnc3)nc(-c3ccccc3)n2)cc1,0.044
12,N#Cc1ccc(Nc2cc(NCc3ccncc3)nc(-c3ccccc3)n2)cc1,0.073
13,N#Cc1ccc(Nc2cc(Nc3ccccc3O)nc(-c3ccccc3)n2)cc1,0.147
14,N#Cc1ccc(Nc2cc(Nc3cccc(O)c3)nc(-c3ccccc3)n2)cc1,0.181
15,N#Cc1ccc(Nc2cc(Nc3ccc(O)cc3)nc(-c3ccccc3)n2)cc1,0.171
16,N#Cc1ccc(Nc2cc(Nc3ccc(C#N)cc3)nc(-c3ccccc3)n2)cc1,0.231

# Source: BindingDB's records for doi:10.1016/j.ejmech.2020.113045 (Rheinische Friedrich-Wilhelms-University of Bonn, 2021)
